Data from the kinase profiling compilation of Christmann-Franck et al. (2016).

What was measured:
Assay in all cases: KINOMEscan competition binding
Settings in all cases: compound 10.0 µM
[1] = target: AKT1 (human) (UniProt P31749)
[2] = target: AURKA (human) (UniProt O14965)
[3] = target: BMP2K (human) (UniProt Q9NSY1)
[4] = target: CDK5 (human) (UniProt Q00535)
[5] = target: CHUK (human) (UniProt O15111)
[6] = target: CSNK1G1 (human) (UniProt Q9HCP0)
[7] = target: CSNK1G2 (human) (UniProt P78368)
[8] = target: DAPK1 (human) (UniProt P53355)
Chain of DAPK1 (human) (P53355 whole entry, looked up): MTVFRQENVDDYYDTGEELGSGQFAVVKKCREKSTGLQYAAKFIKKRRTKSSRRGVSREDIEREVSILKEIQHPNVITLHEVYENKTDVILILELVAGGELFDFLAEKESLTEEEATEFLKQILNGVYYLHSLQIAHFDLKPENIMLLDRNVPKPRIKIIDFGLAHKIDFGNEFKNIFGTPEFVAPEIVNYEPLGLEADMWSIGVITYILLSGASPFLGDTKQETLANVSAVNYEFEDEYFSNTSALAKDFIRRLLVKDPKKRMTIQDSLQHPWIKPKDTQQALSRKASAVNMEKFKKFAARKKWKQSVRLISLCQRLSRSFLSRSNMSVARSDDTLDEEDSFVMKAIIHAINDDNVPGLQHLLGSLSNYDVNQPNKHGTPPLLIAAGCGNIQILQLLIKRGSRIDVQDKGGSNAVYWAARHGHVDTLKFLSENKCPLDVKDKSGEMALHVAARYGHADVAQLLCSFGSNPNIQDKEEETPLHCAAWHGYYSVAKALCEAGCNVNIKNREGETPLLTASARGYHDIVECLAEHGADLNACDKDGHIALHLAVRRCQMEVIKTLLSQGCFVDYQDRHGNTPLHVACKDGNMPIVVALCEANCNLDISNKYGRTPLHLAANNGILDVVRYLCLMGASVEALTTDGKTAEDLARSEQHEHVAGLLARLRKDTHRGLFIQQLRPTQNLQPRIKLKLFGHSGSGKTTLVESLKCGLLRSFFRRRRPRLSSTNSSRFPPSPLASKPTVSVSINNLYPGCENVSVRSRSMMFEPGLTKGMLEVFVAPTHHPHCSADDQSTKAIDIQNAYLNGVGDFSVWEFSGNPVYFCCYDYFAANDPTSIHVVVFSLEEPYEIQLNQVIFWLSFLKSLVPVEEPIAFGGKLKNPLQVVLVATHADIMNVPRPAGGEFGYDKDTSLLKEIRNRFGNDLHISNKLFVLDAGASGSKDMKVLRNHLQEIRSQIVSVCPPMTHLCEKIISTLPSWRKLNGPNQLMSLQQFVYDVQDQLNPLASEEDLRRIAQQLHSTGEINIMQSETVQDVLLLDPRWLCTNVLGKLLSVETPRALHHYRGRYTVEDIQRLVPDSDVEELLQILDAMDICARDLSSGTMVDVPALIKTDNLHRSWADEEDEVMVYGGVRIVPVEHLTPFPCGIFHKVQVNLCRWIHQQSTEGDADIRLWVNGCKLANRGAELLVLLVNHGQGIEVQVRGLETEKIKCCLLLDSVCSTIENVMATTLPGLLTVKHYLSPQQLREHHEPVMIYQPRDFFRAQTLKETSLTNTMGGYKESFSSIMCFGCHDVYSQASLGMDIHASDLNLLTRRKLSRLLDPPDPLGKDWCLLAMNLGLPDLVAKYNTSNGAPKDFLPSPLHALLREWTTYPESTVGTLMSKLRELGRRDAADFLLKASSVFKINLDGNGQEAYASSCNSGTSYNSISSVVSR

[9] = target: DCLK1 (human) (UniProt O15075)
[10] = target: EPHB2 (human) (UniProt P29323)
[11] = target: EPHB3 (human) (UniProt P54753)
[12] = target: ERBB2 (human) (UniProt P04626)
[13] = target: ERBB4 (human) (UniProt Q15303)
[14] = target: FLT1 (human) (UniProt P17948)
[15] = target: FYN (human) (UniProt P06241)
[16] = target: GSK3A (human) (UniProt P49840)
[17] = target: ITK (human) (UniProt Q08881)
[18] = target: JAK1 JH2 pseudokinase (human) (UniProt P23458)
[19] = target: MAP2K3 (human) (UniProt P46734)
[20] = target: MAP4K3 (human) (UniProt Q8IVH8)
Chain of MAP4K3 (human) (Q8IVH8 whole entry, looked up): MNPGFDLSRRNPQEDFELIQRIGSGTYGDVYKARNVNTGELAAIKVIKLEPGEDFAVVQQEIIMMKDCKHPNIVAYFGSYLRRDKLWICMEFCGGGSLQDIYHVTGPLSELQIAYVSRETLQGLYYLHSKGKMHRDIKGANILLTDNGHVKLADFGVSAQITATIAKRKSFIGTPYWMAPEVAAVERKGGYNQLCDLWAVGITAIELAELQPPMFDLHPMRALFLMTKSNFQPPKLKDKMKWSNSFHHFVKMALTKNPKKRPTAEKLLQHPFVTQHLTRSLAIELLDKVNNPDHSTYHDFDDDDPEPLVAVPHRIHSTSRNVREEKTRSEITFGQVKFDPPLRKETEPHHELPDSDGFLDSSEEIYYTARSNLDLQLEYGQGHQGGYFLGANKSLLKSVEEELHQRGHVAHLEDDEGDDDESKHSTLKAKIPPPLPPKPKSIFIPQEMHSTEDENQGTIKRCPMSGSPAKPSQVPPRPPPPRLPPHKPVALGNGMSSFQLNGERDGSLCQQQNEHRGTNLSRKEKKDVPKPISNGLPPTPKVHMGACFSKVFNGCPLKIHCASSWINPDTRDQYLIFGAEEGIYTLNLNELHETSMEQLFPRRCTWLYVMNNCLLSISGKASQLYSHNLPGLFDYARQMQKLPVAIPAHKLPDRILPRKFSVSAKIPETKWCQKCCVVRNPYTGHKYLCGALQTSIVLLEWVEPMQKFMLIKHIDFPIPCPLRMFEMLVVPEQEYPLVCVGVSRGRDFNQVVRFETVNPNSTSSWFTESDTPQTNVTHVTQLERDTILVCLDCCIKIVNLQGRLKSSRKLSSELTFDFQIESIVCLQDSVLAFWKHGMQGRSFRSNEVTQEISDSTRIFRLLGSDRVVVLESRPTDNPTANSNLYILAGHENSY

[21] = target: MAPK11 (human) (UniProt Q15759)
[22] = target: MAPK12 (human) (UniProt P53778)
[23] = target: MAPK13 (human) (UniProt O15264)
[24] = target: MARK1 (human) (UniProt Q9P0L2)
[25] = target: MYLK (human) (UniProt Q15746)
[26] = target: MYO3A (human) (UniProt Q8NEV4)
[27] = target: NEK1 (human) (UniProt Q96PY6)
[28] = target: NTRK1 (human) (UniProt P04629)
[29] = target: NTRK3 (human) (UniProt Q16288)
Chain of NTRK3 (human) (Q16288 whole entry, looked up): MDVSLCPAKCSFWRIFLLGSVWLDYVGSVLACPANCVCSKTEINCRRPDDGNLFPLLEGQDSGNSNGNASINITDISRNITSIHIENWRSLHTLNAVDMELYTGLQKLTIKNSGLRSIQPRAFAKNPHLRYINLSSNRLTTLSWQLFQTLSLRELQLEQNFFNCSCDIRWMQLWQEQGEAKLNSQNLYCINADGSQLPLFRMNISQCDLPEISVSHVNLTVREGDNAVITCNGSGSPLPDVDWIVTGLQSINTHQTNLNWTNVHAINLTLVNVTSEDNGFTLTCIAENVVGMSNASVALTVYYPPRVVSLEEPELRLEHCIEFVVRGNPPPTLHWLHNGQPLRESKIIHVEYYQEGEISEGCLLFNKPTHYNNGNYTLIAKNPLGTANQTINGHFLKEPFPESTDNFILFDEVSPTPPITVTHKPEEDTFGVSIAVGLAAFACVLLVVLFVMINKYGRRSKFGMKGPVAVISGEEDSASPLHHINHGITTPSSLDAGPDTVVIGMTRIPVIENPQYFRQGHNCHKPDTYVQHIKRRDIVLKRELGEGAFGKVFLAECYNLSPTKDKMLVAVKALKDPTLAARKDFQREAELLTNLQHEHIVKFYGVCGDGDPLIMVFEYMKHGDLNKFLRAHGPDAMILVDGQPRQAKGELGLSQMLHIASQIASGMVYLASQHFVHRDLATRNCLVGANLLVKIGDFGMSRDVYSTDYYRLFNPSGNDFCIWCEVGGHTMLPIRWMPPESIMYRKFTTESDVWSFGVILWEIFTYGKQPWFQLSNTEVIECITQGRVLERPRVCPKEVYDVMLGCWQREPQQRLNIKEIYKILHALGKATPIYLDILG

[30] = target: PAK7 (human) (UniProt Q9P286)
[31] = target: PHKG1 (human) (UniProt Q16816)
Chain of PHKG1 (human) (Q16816 whole entry, looked up): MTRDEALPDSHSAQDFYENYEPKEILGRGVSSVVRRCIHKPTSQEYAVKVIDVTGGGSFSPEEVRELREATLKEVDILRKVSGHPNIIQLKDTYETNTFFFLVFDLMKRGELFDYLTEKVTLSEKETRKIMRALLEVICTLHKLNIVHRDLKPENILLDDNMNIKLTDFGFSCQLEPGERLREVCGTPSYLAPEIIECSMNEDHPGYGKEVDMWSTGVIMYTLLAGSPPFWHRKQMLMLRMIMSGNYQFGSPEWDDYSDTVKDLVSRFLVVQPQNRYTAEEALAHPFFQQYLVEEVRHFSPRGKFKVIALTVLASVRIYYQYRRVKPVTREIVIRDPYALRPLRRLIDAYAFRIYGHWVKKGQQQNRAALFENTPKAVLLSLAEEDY

[32] = target: PIK3CA (human) (UniProt P42336)
[33] = target: RPS6KA5 KD2 (human) (UniProt O75582)
Chain of RPS6KA5 KD2 (human) (O75582 whole entry, looked up): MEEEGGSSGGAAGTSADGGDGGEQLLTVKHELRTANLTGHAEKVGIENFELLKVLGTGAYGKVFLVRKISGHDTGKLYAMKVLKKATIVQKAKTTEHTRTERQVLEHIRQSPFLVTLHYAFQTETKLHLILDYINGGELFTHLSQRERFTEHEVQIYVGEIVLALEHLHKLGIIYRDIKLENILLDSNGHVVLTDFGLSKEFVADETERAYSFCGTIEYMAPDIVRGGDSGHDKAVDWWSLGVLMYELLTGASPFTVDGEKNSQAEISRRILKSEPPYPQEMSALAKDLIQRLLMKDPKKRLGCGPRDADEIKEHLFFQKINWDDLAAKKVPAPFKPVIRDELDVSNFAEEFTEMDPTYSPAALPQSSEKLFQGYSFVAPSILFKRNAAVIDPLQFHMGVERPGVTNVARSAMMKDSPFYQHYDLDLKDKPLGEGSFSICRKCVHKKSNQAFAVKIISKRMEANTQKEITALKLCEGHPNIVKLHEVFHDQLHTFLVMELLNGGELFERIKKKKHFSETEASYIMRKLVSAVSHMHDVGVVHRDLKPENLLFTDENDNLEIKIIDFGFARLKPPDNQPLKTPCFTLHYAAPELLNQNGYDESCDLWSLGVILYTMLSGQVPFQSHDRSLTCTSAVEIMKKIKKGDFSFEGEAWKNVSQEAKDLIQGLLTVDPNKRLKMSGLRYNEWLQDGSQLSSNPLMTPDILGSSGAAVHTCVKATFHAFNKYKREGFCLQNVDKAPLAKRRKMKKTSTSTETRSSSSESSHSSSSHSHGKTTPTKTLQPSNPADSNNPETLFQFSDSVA

[34] = target: STK3 (human) (UniProt Q13188)
[35] = target: STK32C (human) (UniProt Q86UX6)
[36] = target: TLK1 (human) (UniProt Q9UKI8)
[37] = target: TLK2 (human) (UniProt Q86UE8)
[38] = target: TNIK (human) (UniProt Q9UKE5)
[39] = target: ULK3 (human) (UniProt Q6PHR2)
[40] = target: CDK15 (human) (UniProt Q96Q40)
[41] = system: EGFR (human), P00533 [G719C]
[42] = target: RET (human) (UniProt P07949)
[43] = target: STK35 (human) (UniProt Q8TDR2)
Chain of STK35 (human) (Q8TDR2 whole entry, looked up): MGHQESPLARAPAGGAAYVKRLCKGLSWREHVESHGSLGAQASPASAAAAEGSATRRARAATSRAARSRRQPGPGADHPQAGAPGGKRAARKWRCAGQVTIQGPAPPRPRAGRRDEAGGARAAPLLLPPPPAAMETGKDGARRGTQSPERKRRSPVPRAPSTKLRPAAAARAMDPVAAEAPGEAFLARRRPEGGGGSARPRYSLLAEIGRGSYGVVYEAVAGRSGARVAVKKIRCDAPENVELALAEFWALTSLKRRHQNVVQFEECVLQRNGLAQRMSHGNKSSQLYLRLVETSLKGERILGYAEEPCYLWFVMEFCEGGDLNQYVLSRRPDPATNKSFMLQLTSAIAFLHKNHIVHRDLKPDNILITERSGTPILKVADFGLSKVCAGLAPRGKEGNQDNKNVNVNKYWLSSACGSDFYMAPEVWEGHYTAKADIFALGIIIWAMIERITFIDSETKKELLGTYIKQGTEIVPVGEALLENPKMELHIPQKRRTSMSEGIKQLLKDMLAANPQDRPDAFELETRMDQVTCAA

COc1cc(N2CCC(N3CCN(C)CC3)CC2)ccc1Nc1ncc(Cl)c(Nc2ccccc2S(=O)(=O)C(C)C)n1
kinase still bound, per cent of control [1]: 40%
kinase still bound, per cent of control [2]: 0%
kinase still bound, per cent of control [3]: 2.8%
kinase still bound, per cent of control [4]: 5.2%
kinase still bound, per cent of control [5]: 40%
kinase still bound, per cent of control [6]: 40%
kinase still bound, per cent of control [7]: 40%
kinase still bound, per cent of control [8]: 6.4%
kinase still bound, per cent of control [9]: 0%
kinase still bound, per cent of control [10]: 33%
kinase still bound, per cent of control [11]: 18%
kinase still bound, per cent of control [12]: 8%
kinase still bound, per cent of control [13]: 1.2%
kinase still bound, per cent of control [14]: 2.8%
kinase still bound, per cent of control [15]: 5.6%
kinase still bound, per cent of control [16]: 40%
kinase still bound, per cent of control [17]: 0.1%
kinase still bound, per cent of control [18]: 4.2%
kinase still bound, per cent of control [19]: 0.8%
kinase still bound, per cent of control [20]: 2.5%
kinase still bound, per cent of control [21]: 40%
kinase still bound, per cent of control [22]: 40%
kinase still bound, per cent of control [23]: 40%
kinase still bound, per cent of control [24]: 0%
kinase still bound, per cent of control [25]: 0.5%
kinase still bound, per cent of control [26]: 0.25%
kinase still bound, per cent of control [27]: 40%
kinase still bound, per cent of control [28]: 12%
kinase still bound, per cent of control [29]: 40%
kinase still bound, per cent of control [30]: 2.7%
kinase still bound, per cent of control [31]: 0.1%
kinase still bound, per cent of control [32]: 40%
kinase still bound, per cent of control [33]: 40%
kinase still bound, per cent of control [34]: 0.25%
kinase still bound, per cent of control [35]: 3.1%
kinase still bound, per cent of control [36]: 40%
kinase still bound, per cent of control [37]: 40%
kinase still bound, per cent of control [38]: 12%
kinase still bound, per cent of control [39]: 0%

CCOc1cc(N2CCC(N3CCCCC3)CC2)ccc1Nc1nc(Nc2ccccc2S(=O)(=O)C(C)C)c2cn[nH]c2n1
kinase still bound, per cent of control [1]: 100%
kinase still bound, per cent of control [2]: 100%
kinase still bound, per cent of control [3]: 47%
kinase still bound, per cent of control [40]: 100%
kinase still bound, per cent of control [4]: 96%
kinase still bound, per cent of control [5]: 100%
kinase still bound, per cent of control [6]: 71%
kinase still bound, per cent of control [7]: 46%
kinase still bound, per cent of control [8]: 60%
kinase still bound, per cent of control [9]: 5.2%
kinase still bound, per cent of control [41]: 81%
kinase still bound, per cent of control [10]: 100%
kinase still bound, per cent of control [11]: 100%
kinase still bound, per cent of control [12]: 37%
kinase still bound, per cent of control [13]: 7.8%
kinase still bound, per cent of control [14]: 100%
kinase still bound, per cent of control [15]: 100%
kinase still bound, per cent of control [16]: 100%
kinase still bound, per cent of control [17]: 40%
kinase still bound, per cent of control [18]: 1.3%
kinase still bound, per cent of control [19]: 7%
kinase still bound, per cent of control [20]: 10%
kinase still bound, per cent of control [21]: 100%
kinase still bound, per cent of control [22]: 100%
kinase still bound, per cent of control [23]: 100%
kinase still bound, per cent of control [24]: 100%
kinase still bound, per cent of control [25]: 0.9%
kinase still bound, per cent of control [26]: 38%
kinase still bound, per cent of control [27]: 100%
kinase still bound, per cent of control [28]: 72%
kinase still bound, per cent of control [29]: 54%
kinase still bound, per cent of control [30]: 80%
kinase still bound, per cent of control [31]: 24%
kinase still bound, per cent of control [32]: 99%
kinase still bound, per cent of control [42]: 100%
kinase still bound, per cent of control [33]: 100%
kinase still bound, per cent of control [34]: 100%
kinase still bound, per cent of control [35]: 88%
kinase still bound, per cent of control [43]: 100%
kinase still bound, per cent of control [36]: 75%
kinase still bound, per cent of control [37]: 100%
kinase still bound, per cent of control [38]: 87%
kinase still bound, per cent of control [39]: 100%

CCN1CCN(Cc2ccc(NC(=O)c3ccc(C)c(/C=C/c4cnc(Nc5cc(N6CCNCC6)nc(C)n5)cn4)c3)cc2C(F)(F)F)CC1
kinase still bound, per cent of control [1]: 100%
kinase still bound, per cent of control [2]: 78%
kinase still bound, per cent of control [3]: 100%
kinase still bound, per cent of control [40]: 53%
kinase still bound, per cent of control [4]: 96%
kinase still bound, per cent of control [5]: 0%
kinase still bound, per cent of control [6]: 100%
kinase still bound, per cent of control [7]: 96%
kinase still bound, per cent of control [8]: 85%
kinase still bound, per cent of control [9]: 97%
kinase still bound, per cent of control [41]: 1.8%
kinase still bound, per cent of control [10]: 5.7%
kinase still bound, per cent of control [11]: 100%
kinase still bound, per cent of control [12]: 0%
kinase still bound, per cent of control [13]: 7%
kinase still bound, per cent of control [14]: 27%
kinase still bound, per cent of control [15]: 4.6%
kinase still bound, per cent of control [16]: 81%
kinase still bound, per cent of control [17]: 86%
kinase still bound, per cent of control [18]: 94%
kinase still bound, per cent of control [19]: 100%
kinase still bound, per cent of control [20]: 0.9%
kinase still bound, per cent of control [21]: 3.2%
kinase still bound, per cent of control [22]: 39%
kinase still bound, per cent of control [23]: 83%
kinase still bound, per cent of control [24]: 100%
kinase still bound, per cent of control [25]: 67%
kinase still bound, per cent of control [26]: 60%
kinase still bound, per cent of control [27]: 91%
kinase still bound, per cent of control [28]: 0.45%
kinase still bound, per cent of control [29]: 1%
kinase still bound, per cent of control [30]: 100%
kinase still bound, per cent of control [31]: 100%
kinase still bound, per cent of control [32]: 92%
kinase still bound, per cent of control [42]: 0.15%
kinase still bound, per cent of control [33]: 73%
kinase still bound, per cent of control [34]: 100%
kinase still bound, per cent of control [35]: 96%
kinase still bound, per cent of control [43]: 57%
kinase still bound, per cent of control [36]: 100%
kinase still bound, per cent of control [37]: 100%
kinase still bound, per cent of control [38]: 1.9%
kinase still bound, per cent of control [39]: 1.6%

CCN1CCN(Cc2ccc(NC(=O)c3ccc(C)c(Oc4ccnc5[nH]ccc45)c3)cc2C(F)(F)F)CC1
kinase still bound, per cent of control [40]: 6%
kinase still bound, per cent of control [4]: 19%
kinase still bound, per cent of control [5]: 0.95%
kinase still bound, per cent of control [41]: 12%
kinase still bound, per cent of control [10]: 11%
kinase still bound, per cent of control [13]: 28%
kinase still bound, per cent of control [14]: 1.6%
kinase still bound, per cent of control [15]: 1.6%
kinase still bound, per cent of control [18]: 11%
kinase still bound, per cent of control [20]: 18%
kinase still bound, per cent of control [21]: 0%
kinase still bound, per cent of control [22]: 0%
kinase still bound, per cent of control [23]: 0.55%
kinase still bound, per cent of control [26]: 6.4%
kinase still bound, per cent of control [29]: 3.8%
kinase still bound, per cent of control [42]: 0%
kinase still bound, per cent of control [43]: 3%
kinase still bound, per cent of control [38]: 8.2%
kinase still bound, per cent of control [39]: 0.1%
